Reference: ChEMBL document CHEMBL3272202, “Synthesis and pharmacological activity of some N-alkyl-substituted 9alpha-ethyl-2'-hydroxy-5-methyl-6,7-benzomorphans” (J Med Chem, 1977)
Calls of active or inactive are those of the source. The rule behind the calls is not given here.

Assays:
Rhesus monkey [1] = experiment: Narcotic antagonist activity in morphine-dependent monkey by precipitated withdrawl test; type: functional, organism-based; details: Macaca mulatta
Rhesus monkey [2] = experiment: Narcotic antagonist activity in morphine-dependent monkey by single dose suppression test; type: functional, organism-based; details: Macaca mulatta
Rattus norvegicus [3] = experiment: Narcotic analgesic activity in rat at 30 mg/kg, sc by tail-flick test relative to control; type: functional
Mus musculus [4] = experiment: Narcotic analgesic activity in mouse assessed as suppression of phenylquinone-induced writhing at 30 mg/kg, sc relative to control; type: functional; details: route subcutaneous
Mus musculus [5] = experiment: Narcotic analgesic activity in sc dosed mouse by hot-plate test; type: functional
Rattus norvegicus [6] = experiment: Narcotic antagonist activity in rat at 30 mg/kg, sc by tail-flick test relative to control; type: functional
Mus musculus [7] = experiment: Narcotic analgesic activity in sc dosed mouse assessed as suppression of phenylquinone-induced writhing; type: functional
Rattus norvegicus [8] = experiment: Narcotic analgesic activity in sc dosed rat by tail-flick test; type: functional
Rhesus monkey [9] = experiment: Toxicity in morphine-dependent monkey assessed as morphine substitution measured during single dose suppression test; type: organism-based, Macaca mulatta; details: in vivo
Rattus norvegicus [10] = experiment: Narcotic antagonist activity in rat at 1 to 10 mg/kg, sc by tail-flick test; type: functional, organism-based
Rhesus monkey [11] = experiment: Toxicity in morphine-dependent monkey assessed as morphine substitution measured during precipitated withdrawl test; type: organism-based, Macaca mulatta; details: in vivo
Rattus norvegicus [12] = experiment: Narcotic antagonist activity in sc dosed rat by tail-flick test; type: functional
Mus musculus [13] = experiment: Toxicity in mouse assessed as ataxia at 3 to 10 mg/kg, sc; type: organism-based; set-up: dose 3-10 mg/kg, route subcutaneous; details: in vivo
Mus musculus [14] = experiment: Narcotic analgesic activity in mouse assessed as suppression of phenylquinone-induced writhing at 10 mg/kg, sc relative to control; type: functional; details: route subcutaneous
Mus musculus [15] = experiment: Narcotic analgesic activity in mouse at 10 to 40 mg/kg, sc by Nilsen test; type: functional, organism-based
Mus musculus [16] = experiment: Toxicity in mouse assessed as hyperactivity at 3 to 10 mg/kg, sc; type: organism-based; set-up: dose 3-10 mg/kg, route subcutaneous; details: in vivo
Mus musculus [17] = experiment: Narcotic analgesic activity in mouse at 50 mg/kg by hot-plate test; type: functional, organism-based; set-up: dose 50 mg/kg
Mus musculus [18] = experiment: Narcotic analgesic activity in mouse at 20 mg/kg, sc by Nilsen test; type: functional, organism-based; set-up: dose 20 mg/kg
Mus musculus [19] = experiment: Toxicity in mouse at 50 mg/kg, sc; type: organism-based; set-up: dose 50 mg/kg, route subcutaneous; details: in vivo
Rhesus monkey [20] = experiment: Toxicity in morphine-dependent monkey assessed as morphine substitution at 2.5 to 20 mg/kg measured during precipitated withdrawl test; type: organism-based, Macaca mulatta; set-up: dose 2.5-20 mg/kg; details: in vivo
Rhesus monkey [21] = experiment: Toxicity in morphine-dependent monkey assessed as morphine substitution at 2.5 to 20 mg/kg measured during single dose suppression test; type: organism-based, Macaca mulatta; set-up: dose 2.5-20 mg/kg; details: in vivo
Mus musculus [22] = experiment: Narcotic analgesic activity in mouse at 20 to 50 mg/kg, sc by hot-plate test; type: functional, organism-based
Rhesus monkey [23] = experiment: Toxicity in morphine-dependent monkey assessed as convulsion; type: organism-based, Macaca mulatta; details: in vivo
Rhesus monkey [24] = experiment: Toxicity in morphine-dependent monkey assessed as motor incoordination; type: organism-based, Macaca mulatta; details: in vivo
Rhesus monkey [25] = experiment: Toxicity in morphine-dependent monkey assessed as precipitation of abstinence signs; type: organism-based, Macaca mulatta; details: in vivo
Mus musculus [26] = experiment: Narcotic analgesic activity in mouse at 100 mg/kg, sc by hot-plate test; type: functional, organism-based; set-up: dose 100 mg/kg
Rhesus monkey [27] = experiment: Toxicity in morphine-dependent monkey assessed as depression of central nervous system; type: organism-based, Macaca mulatta; details: in vivo
Mus musculus [28] = experiment: Narcotic analgesic activity in mouse at 50 mg/kg, sc by Nilsen test; type: functional, organism-based; set-up: dose 50 mg/kg
Mus musculus [29] = experiment: Narcotic analgesic activity in sc dosed mouse by Nilsen test; type: functional
Mus musculus [30] = experiment: Narcotic analgesic activity in mouse at 5 to 10 mg/kg, sc by Nilsen test; type: functional, organism-based
Rattus norvegicus [31] = experiment: Narcotic antagonist activity in rat at 10 mg/kg, sc by tail-flick test; type: functional; set-up: scale not given: the % may be the effect or the level left
Mus musculus [32] = experiment: Toxicity in mouse at 5 to 10 mg/kg, sc; type: organism-based; set-up: dose 5-10 mg/kg, route subcutaneous; details: in vivo
Rhesus monkey [33] = experiment: Toxicity in morphine-dependent monkey assessed as depression of central nervous system in presence of nalorphine; type: organism-based, Macaca mulatta; details: in vivo
Rhesus monkey [34] = experiment: Toxicity in morphine-dependent monkey assessed as depression of central nervous system in presence of naloxone; type: organism-based, Macaca mulatta; details: in vivo

## C=CCN1CC[C@]23c4c5ccc(O)c4O[C@H]2C(=O)CC[C@@]3(O)[C@H]1C5
Rhesus monkey [1]
  Activity: Active
Rhesus monkey [2]
  Activity: Active

## CC[C@H]1[C@H]2Cc3ccc(O)cc3[C@@]1(C)CCN2 (racemic)
Rattus norvegicus [3]; route subcutaneous
  inhibition in vivo at 30 mg/kg: 37%
Mus musculus [4]
  inhibition in vivo at 30 mg/kg: 45%
Mus musculus [5]
  ED50: inactive
Rattus norvegicus [6]
  Activity: inactive

## CC[C@H]1[C@H]2Cc3ccc(O)cc3[C@@]1(C)CCN2C (racemic)
Mus musculus [7]
  ED50: 0.2 mg/kg
Mus musculus [5]
  ED50: 1.3 mg/kg
Rattus norvegicus [8]
  ED50: 6.4 mg/kg
Rhesus monkey [9]
  Activity: Toxic
Rattus norvegicus [10]
  Activity: inactive
Rhesus monkey [11]
  Activity: Toxic

## CC[C@H]1[C@H]2Cc3ccc(O)cc3[C@@]1(C)CCN2CC (racemic)
Mus musculus [4]
  inhibition in vivo at 30 mg/kg: 27%
Mus musculus [5]
  ED50: 21.3 mg/kg
Rattus norvegicus [8]
  ED50: inactive
Rattus norvegicus [12]
  AD50: 5.5 mg/kg

## CCCN1CC[C@]2(C)c3cc(O)ccc3C[C@@H]1[C@@H]2CC (racemic)
Mus musculus [13]
  Activity: Toxic
Mus musculus [14]
  Activity: 55%
Mus musculus [5]
  ED50: inactive
Mus musculus [15]
  Activity: inactive
Rattus norvegicus [8]
  ED50: inactive
Mus musculus [16]
  Activity: Toxic
Rattus norvegicus [12]
  AD50: 0.7 mg/kg

## CCCCN1CC[C@]2(C)c3cc(O)ccc3C[C@@H]1[C@@H]2CC (racemic)
Mus musculus [7]
  ED50: 13 mg/kg
Rattus norvegicus [3]
  inhibition: inactive
Mus musculus [5]
  ED50: inactive
Mus musculus [17]
  Activity: inactive
Mus musculus [18]
  Activity: inactive
Mus musculus [19]
  Activity: Toxic
Rattus norvegicus [12]
  AD50: 2.38 mg/kg

## CCCCCN1CC[C@]2(C)c3cc(O)ccc3C[C@@H]1[C@@H]2CC (racemic)
Mus musculus [7]
  ED50: 1.8 mg/kg
Mus musculus [5]
  ED50: 4.2 mg/kg
Rattus norvegicus [8]
  ED50: 28.1 mg/kg
Rattus norvegicus [6]; route subcutaneous
  Activity: 39%
Rattus norvegicus [12]
  AD50: inactive

## CCCCCCN1CC[C@]2(C)c3cc(O)ccc3C[C@@H]1[C@@H]2CC (racemic)
Rhesus monkey [20]
  Activity: Non-toxic
Mus musculus [7]
  ED50: 5.7 mg/kg
Mus musculus [5]
  ED50: 6.2 mg/kg
Rattus norvegicus [8]
  ED50: 18.7 mg/kg
Rhesus monkey [21]
  Activity: Non-toxic
Rattus norvegicus [6]
  Activity: inactive

## CCCCCCCN1CC[C@]2(C)c3cc(O)ccc3C[C@@H]1[C@@H]2CC (racemic)
Mus musculus [7]
  ED50: 7.3 mg/kg
Mus musculus [5]
  ED50: 9.9 mg/kg
Rattus norvegicus [8]
  ED50: 14 mg/kg
Rattus norvegicus [12]
  AD50: inactive

## CCCCCCCCN1CC[C@]2(C)c3cc(O)ccc3C[C@@H]1[C@@H]2CC (racemic)
Mus musculus [7]
  ED50: 15.1 mg/kg
Mus musculus [5]
  ED50: inactive
Rattus norvegicus [8]
  ED50: inactive
Rattus norvegicus [12]
  AD50: inactive

## C=CCN1CC[C@]2(C)c3cc(O)ccc3C[C@@H]1[C@@H]2CC (racemic)
Mus musculus [7]
  ED50: 15.7 mg/kg
Rattus norvegicus [3]
  inhibition: inactive
Mus musculus [22]
  Activity: inactive
Rhesus monkey [1]
  Activity: Active
Rhesus monkey [2]
  Activity: Active
Rattus norvegicus [12]
  AD50: 0.6 mg/kg

## C=CCCCN1CC[C@]2(C)c3cc(O)ccc3C[C@@H]1[C@@H]2CC (racemic)
Rhesus monkey [23]
  Activity: Toxic
Rhesus monkey [24]
  Activity: Toxic
Mus musculus [7]
  ED50: 2.56 mg/kg
Rhesus monkey [25]
  Activity: Toxic
Rattus norvegicus [3]
  inhibition: inactive
Mus musculus [26]
  Activity: inactive
Rhesus monkey [27]
  Activity: Toxic
Mus musculus [28]
  Activity: inactive
Rattus norvegicus [12]
  AD50: 1.18 mg/kg

## CC[C@H]1[C@H]2Cc3ccc(O)cc3[C@@]1(C)CCN2CC=C(C)C (racemic)
Mus musculus [29]
  ED50: 26.8 mg/kg
Mus musculus [14]
  Activity: 36%
Mus musculus [5]
  ED50: 8.9 mg/kg
Rattus norvegicus [8]
  ED50: inactive
Rattus norvegicus [12]
  AD50: 3.1 mg/kg

## CC[C@H]1[C@H]2Cc3ccc(O)cc3[C@@]1(C)CCN2CC1CC1 (racemic)
Mus musculus [30]
  Activity: inactive
Mus musculus [7]
  ED50: 2.1 mg/kg
Rhesus monkey [1]
  Activity: Active
Rattus norvegicus [31]; route subcutaneous
  Activity: 12%
Mus musculus [5]
  ED50: inactive
Rhesus monkey [2]
  Activity: Active
Rattus norvegicus [12]
  AD50: 0.19 mg/kg
Mus musculus [32]
  Activity: Toxic

## CC[C@H]1[C@H]2Cc3ccc(O)cc3[C@@]1(C)CCN2CC1CCC1 (racemic)
Mus musculus [29]
  ED50: 2.9 mg/kg
Rhesus monkey [33]
  Activity: Toxic
Rhesus monkey [34]
  Activity: Non-toxic
Mus musculus [7]
  ED50: 0.31 mg/kg
Rhesus monkey [25]
  Activity: Toxic
Rattus norvegicus [31]
  Activity: inactive
Mus musculus [5]
  ED50: 1.8 mg/kg
Rattus norvegicus [12]
  AD50: 0.477 mg/kg

## CN1CC[C@]23c4c5ccc(O)c4O[C@H]2[C@@H](O)C=C[C@H]3[C@H]1C5 [MORPHINE]
Mus musculus [29]
  ED50: 0.8 mg/kg
Mus musculus [5]
  ED50: 1.2 mg/kg
Rattus norvegicus [8]
  ED50: 5.34 mg/kg
Rattus norvegicus [12]
  AD50: inactive

## C=CCN1CC[C@]23c4c5ccc(O)c4O[C@H]2[C@@H](O)C=C[C@H]3[C@H]1C5 [NALORPHINE]
Mus musculus [29]
  ED50: 4.8 mg/kg
Rhesus monkey [1]
  Activity: Active
Mus musculus [5]
  ED50: 36.3 mg/kg
Rhesus monkey [2]
  Activity: Active
Rattus norvegicus [10]
  Activity: inactive
